Data: patent publication US20220280644A1, “"TRPswitch" - A STEP FUNCTION CHEMO-OPTOGENETIC LIGAND” (UNIVERSITY OF UTAH RESEARCH FOUNDATION, priority 2019, published 2022)

Columns and labels:
[1] = Z→E thermal isomerisation kinetics; type: physicochemical
Description: In order to determine the Z→E thermal isomerisation kinetics in DMSO-d6 a ˜20 mM solution of the relevant compound was irradiated using a Luzchem LZC-4V photoreactor fitted with 12×8 W LZC-420 lamps (420 nm peak emission) until no further change was observable by ^1H NMR. For 30% water:DMSO samples, a 15 μM solution of the relevant compound was irradiated in a quartz cuvette using 365 nm LEDs (3×800 mW Nichia NCSU276A) until no further change was observed by UV-Vis spectroscopy. Compounds (˜25 μM solutions in DMSO) were treated analogously. In the case of compounds studied by NMR, the change in Z-isomer percentage was followed as a function of time through integration of the relevant peaks. […]
For data collected via ^1H NMR, the natural log of the Z isomer concentration was plotted against time to yield a straight line implying first order kinetics. The gradient of this line was used to determine the rate constant for Z→E conversion from which the thermal half-life could be calculated:
For data collected via UV-Vis Spectroscopy, absorbance data at a fixed wavelength was fitted using the following, first order equation: […]
where k represents the rate constant; A∞, A0 and At are the absorbances of the pure E-state, Z-rich state, and time t, respectively. […]

mouse TRPA1 (mTRPA1) = target: T1, mouse TRPA1 (mTRPA1) (Mus musculus, UniProt Q8BLA8); assay: Rescue experiment, Trpa1b−/− embryos expressing mTRPA1 in Rohon-beard neurons; type: in vivo, zebrafish; details: 20 μM, motion within 5 s after 1 s WL3
T1 construct: 2A peptide (remnant stays on the channel) (C); mCherry (separated at the 2A site) (C, cleaved yes); expressed in transfected cells; host or cells: Rohon-Beard neurons of Trpa1b−/− zebrafish embryos, in vivo
Description: For Trpa1b ohnolog and paralog rescue experiments, Trpa1b^−/− embryos were injected with ngn1:zTrpa1b-2A-mCherry (partial plasmid sequence in SEQ ID NO:5), ngn1:zTrpa1a-2A-mCherry, ngn1:hTRPA1-2A-EGFP or ngn1:mTRPA1-2A-mCherry at the 1-cell stage for mosaic Rohon-beard neuron expression. Embryos were screened at 2 dpf for fluorescent expression in Rohon-beard neurons, incubated with 20 μM TRPswitch-B for 1 hr and decapitated posterior to the eyes right before experiments. NA 0.25 5× objective and 1 s WL3 light illumination was used.
To test the potential cross activity of TRPswitch-B on the zebrafish ohnolog Trpa1a and on mammalian orthologs, zebrafish Trpa1a, mouse TRPA1 or human TRPA1 were transiently re-expressed in the Rohon-beard neurons of mutant Trpa1b^−/− zebrafish and performed light-induced motion response experiments in the presence of TRPswitch-B. Rescue experiments were performed in Trpa1b^−/− zebrafish with transient mosaic re-expression of zebrafish Trpa1b (zTrpa1b), zebrafish Trpa1a (zTrpa1a), mouse TRPA1 (mTRPA1) or human TRPA1 (hTRAP1) in Rohon-beard neurons. Embryos were pre-treated with 20 μM TRPswitch-B and decapitated right before light stimulation to eliminate the light response mediated by the retina (Table 5). […]

T1 sequence (Q8BLA8 whole entry): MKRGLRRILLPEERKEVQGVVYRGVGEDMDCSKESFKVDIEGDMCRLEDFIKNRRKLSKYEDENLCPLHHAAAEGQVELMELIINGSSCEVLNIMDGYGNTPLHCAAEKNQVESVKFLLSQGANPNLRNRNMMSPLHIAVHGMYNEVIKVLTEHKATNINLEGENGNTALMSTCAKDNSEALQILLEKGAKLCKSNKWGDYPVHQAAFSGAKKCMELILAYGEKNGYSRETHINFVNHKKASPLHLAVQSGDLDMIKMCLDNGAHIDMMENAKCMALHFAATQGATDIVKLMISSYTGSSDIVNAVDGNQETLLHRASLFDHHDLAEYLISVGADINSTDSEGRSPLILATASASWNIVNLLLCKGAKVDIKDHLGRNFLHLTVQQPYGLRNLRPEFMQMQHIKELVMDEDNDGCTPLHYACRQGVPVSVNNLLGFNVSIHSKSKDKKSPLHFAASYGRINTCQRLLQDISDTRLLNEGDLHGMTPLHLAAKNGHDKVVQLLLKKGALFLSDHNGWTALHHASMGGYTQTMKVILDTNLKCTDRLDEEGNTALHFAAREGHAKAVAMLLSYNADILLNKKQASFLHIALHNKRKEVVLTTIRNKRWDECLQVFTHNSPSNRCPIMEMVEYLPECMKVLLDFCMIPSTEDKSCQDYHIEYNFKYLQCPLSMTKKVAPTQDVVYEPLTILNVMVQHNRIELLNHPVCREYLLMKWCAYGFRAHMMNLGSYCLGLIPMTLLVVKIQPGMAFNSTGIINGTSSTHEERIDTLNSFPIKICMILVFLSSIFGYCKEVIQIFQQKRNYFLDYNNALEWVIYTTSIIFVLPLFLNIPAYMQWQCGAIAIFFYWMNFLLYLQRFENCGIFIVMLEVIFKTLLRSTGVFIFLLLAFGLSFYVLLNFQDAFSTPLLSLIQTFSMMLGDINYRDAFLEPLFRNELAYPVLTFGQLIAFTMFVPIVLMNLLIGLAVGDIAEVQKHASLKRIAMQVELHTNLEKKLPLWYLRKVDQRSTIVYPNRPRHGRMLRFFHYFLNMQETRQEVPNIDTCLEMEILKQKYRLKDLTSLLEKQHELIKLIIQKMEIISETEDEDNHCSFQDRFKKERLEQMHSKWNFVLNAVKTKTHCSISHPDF

- thermal half-lives [1]: long thermal half-lives
- % response (mouse TRPA1 (mTRPA1)): 0%
SMILES: Cc1nn(C)c(C)c1/N=N/c1ccc(NC(=O)c2cccs2)cc1NC(=O)c1cccs1 [Compound 9, (E)-N,N′-(4-((1,3,5-trimethyl-1H-pyrazol-4-yl)diazenyl)-1,3-phenylene)bis(thiophene-2-carboxamide)]
